Assay results from paper PMC8170132, “Kinetics of Abacavir-Induced Remodelling of the Major Histocompatibility Complex Class I Peptide Repertoire” (Frontiers in Immunology, 2021).

How the values were obtained:
HLA-B*57:01 [1] = target: T1, HLA-B*57:01 (Homo sapiens, UniProt P01889, D201E/D98Y/E176V/E187L/E204Q/E69M/E70A/G107R/I90N/K202T/L105A/L119I/N104I/N87E/Q89R/Q94S/R106L/R155S/R180L/R86G/S101N/S121V/S35A/S48A/T118I/V36M/Y140S/Y91M); parameters: method as in Illing et al., Nature 2012; conditions: ref Illing et al., Nature 2012, cited from earlier work; for HLA-B*57:01 previous observation by LC-MS/MS, Abacavir treated: abacavir treated cells; for HLA-B*57:01 previous observation by LC-MS/MS, Untreated: untreated cells
HLA-B*57:01 [2] = target: T1, HLA-B*57:01; assay: LC-MRM-MS quantitation of HLA ligands and co-purified abacavir from abacavir treated C1R.B*57:01 cells; type: cell-based; conditions: for Abacavir dependence: LC-MRM-MS detection, classification of the peptide based on abacavir dependency; for Linear regression slope: linear regression of LC-MRM-MS peptide abundance over abacavir treatment time; for Category of abacavir impact on peptide abundance in the immunopeptidome: C1R.B*57:01, 35 µM abacavir 0-16 h or constant, linear regression of normalised abundance, three replicates

Sequence | HLA-B*57:01 previous observation by LC-MS/MS, Abacavir treated (HLA-B*57:01 [1]) | HLA-B*57:01 previous observation by LC-MS/MS, Untreated (HLA-B*57:01 [1]) | Abacavir dependence (HLA-B*57:01 [2]) | Linear regression slope (HLA-B*57:01 [2]) | Category of abacavir impact on peptide abundance in the immunopeptidome (HLA-B*57:01 [2])
KTAGYPNVNI | + (+ (< 5% FDR)) | # (# (> 5% FDR)) | Dependent | 0.0509 | –
ISIHVGQAGVQI | + (+ (< 5% FDR)) | – | Dependent | 0.0259 | –
NTVELRVKI [non-labelled HLA-B*57:01 ligand] | + (+ (< 5% FDR)) | – | Dependent | 0.0281 | Dependent
TSQAGLFRLW | + (+ (< 5% FDR)) | + (+ (< 5% FDR)) | Minimal | 0.0067 | –
GTYQDVGSLNI | + (+ (< 5% FDR)) | – | Dependent | 0.0429 | –
LSQEQLRQW | + (+ (< 5% FDR)) | + (+ (< 5% FDR)) | Minimal | 0.0083 | –
MTAGVDGHSW | + (+ (< 5% FDR)) | + (+ (< 5% FDR)) | Minimal | -0.0056 | –
IVFPGSTGHI | + (+ (< 5% FDR)) | – | Dependent | 0.0377 | –
KTIKLWNTL [HLA-B*57:01 ligand derived from RACK1] | + (+ (< 5% FDR)) | + (+ (< 5% FDR)) | Facilitated | 0.0224 | abacavir facilitated (abacavir facilitated (slope > 0.02, abundance > 0 at t = 0 in at least two of three replicates))
KAIDYIRFL | + (+ (< 5% FDR)) | # (# (> 5% FDR)) | Inhibited | -0.0293 | –
VTYPAKAKGTFI | + (+ (< 5% FDR)) | – | Dependent | 0.0340 | –
LTTKLTNTNI [non-labelled HLA-B*57:01 ligand] | + (+ (< 5% FDR)) | – | Dependent | 0.0544 | Dependent
SSAEVKVTI | + (+ (< 5% FDR)) | – | Dependent | 0.0466 | –
YFDPANGKF | + (+ (< 5% FDR)) | + (+ (< 5% FDR)) | – | 0.0159 | –
ITNADSATRLL | – | + (+ (< 5% FDR)) | Inhibited | -0.0254 | –
VSVKDIQAHL | + (+ (< 5% FDR)) | – | Dependent | 0.0241 | –
ASSSQIIHI | + (+ (< 5% FDR)) | – | Dependent | 0.0446 | –
ATFKGIVRAI [non-labelled HLA-B*57:01 ligand] | + (+ (< 5% FDR)) | – | Dependent | 0.0504 | Dependent
VTTDIQVKV | + (+ (< 5% FDR)) | + (+ (< 5% FDR)) | Dependent | 0.0428 | –
STIRLLTSL | + (+ (< 5% FDR)) | + (+ (< 5% FDR)) | Facilitated | 0.0278 | –
VTHSVRIGF | + (+ (< 5% FDR)) | + (+ (< 5% FDR)) | Inhibited | -0.0410 | –

Sequence | HLA-B*57:01 previous observation by LC-MS/MS, Abacavir treated (HLA-B*57:01 [1]) | HLA-B*57:01 previous observation by LC-MS/MS, Untreated (HLA-B*57:01 [1]) | Abacavir dependence (HLA-B*57:01 [2]) | Linear regression slope (HLA-B*57:01 [2]) | Category of abacavir impact on peptide abundance in the immunopeptidome (HLA-B*57:01 [2])
KTLEGEFSV | + (+ (< 5% FDR)) | – | Dependent | 0.0463 | –
KTIETSPSL [HLA-B*57:01 ligand] | # (# (> 5% FDR)) | – | – | – | abacavir facilitated (abacavir facilitated (slope > 0.02, abundance > 0 at t = 0 in at least two of three replicates))
KSYELPDGQVI | + (+ (< 5% FDR)) | # (# (> 5% FDR)) | Facilitated | 0.0297 | –
KIADFGWSV | + (+ (< 5% FDR)) | – | Dependent | 0.0283 | –
RVDPAKGLFYF [non-labelled HLA-B*57:01 ligand] | + (+ (< 5% FDR)) | + (+ (< 5% FDR)) | Inhibited | -0.0245 | Inhibited
RVLPPSHRVTW | + (+ (< 5% FDR)) | + (+ (< 5% FDR)) | Minimal | 0.0197 | –
TSLKSRVTI [non-labelled HLA-B*57:01 ligand] | # (# (> 5% FDR)) | + (+ (< 5% FDR)) | Facilitated | 0.0267 | Facilitated
ITKTVVENI [HLA-B*57:01 ligand] | + (+ (< 5% FDR)) | + (+ (< 5% FDR)) | Minimal | -0.0036 | Minimal
TALPLLKQF | + (+ (< 5% FDR)) | + (+ (< 5% FDR)) | Inhibited | -0.0283 | –
KTFTTQETI [HLA-B*57:01 ligand] | + (+ (< 5% FDR)) | + (+ (< 5% FDR)) | – | – | abacavir facilitated (abacavir facilitated (slope > 0.02, abundance > 0 at t = 0 in at least two of three replicates))
VSAKEKYYVW | + (+ (< 5% FDR)) | + (+ (< 5% FDR)) | Minimal | -0.0125 | –
KTFIGTVRV | + (+ (< 5% FDR)) | – | Dependent | 0.0503 | –
HTIQIRQDW [HLA-B*57:01 ligand] | + (+ (< 5% FDR)) | + (+ (< 5% FDR)) | Facilitated | 0.0256 | Facilitated
IFDSKVTEI | + (+ (< 5% FDR)) | + (+ (< 5% FDR)) | – | -0.0096 | –
LSSDINVRSW | + (+ (< 5% FDR)) | + (+ (< 5% FDR)) | Minimal | -0.0197 | –
LSSPVTKSF | + (+ (< 5% FDR)) | + (+ (< 5% FDR)) | Minimal | 0.0147 | minimally impacted by abacavir
KVFKLQTSL [non-labelled HLA-B*57:01 ligand] | # (# (> 5% FDR)) | – | Dependent | 0.0380 | Dependent
RVDPDVAQHW | + (+ (< 5% FDR)) | + (+ (< 5% FDR)) | Minimal | 0.0110 | –
KTFKDVGNLL [non-labelled HLA-B*57:01 ligand] | + (+ (< 5% FDR)) | + (+ (< 5% FDR)) | Facilitated | 0.0314 | Facilitated
YTDNLVRVW [HLA-B*57:01 ligand derived from RACK1] | + (+ (< 5% FDR)) | + (+ (< 5% FDR)) | Minimal | -0.0088 | minimally impacted by abacavir
